Results published in patent US20260027073A1, “USE OF SMALL-MOLECULE COMPOUND HAVING NAPHTHYLAMINE STRUCTURE” (HANGZHOU PHECDAMED CO., LTD., priority 2023, published 2026).

Key:
[1] = tested on: Androgen-induced benign prostatic hyperplasia in rats; assay: Androgen-induced benign prostatic hyperplasia; assay type: in vivo, SD rats; settings: TJ01-013 30 mg/kg, Finasteride 10 mg/kg
Experimental: Androgen-induced benign prostatic hyperplasia in rats has been used in many research fields. The specific model was constructed as follows: 180 g-200 g male SD rats were given 30 mg/kg androgen intramuscularly every other day, and 15 consecutive androgen injections were given for modeling, and the experiments were divided into […], a negative control group (Sham), a model control group (Control), TJ01-013 treatment group (TJ01-013, 30 mg/kg), Finasteride treatment group (Finasteride, 10 mg/kg), and TJ01-013+Finasteride treatment group (13+F). The drug was administered at the same time as the androgen modeling, the mode of administration was by oral gavage, the volume of the administration was 10 ml/kg, the frequency of administration was daily, and the administration was ended on the 30th day, the rats were weighed and euthanized, and the prostate and urethra of the rats were taken and weighed, and the organ coefficients (weight of the prostate gland/weight of the rats) were finally calculated.

[2] = tested on: CUMS animal model of depression; assay: CUMS depression model behavioral tests; assay type: in vivo, C57BL/6J mice; settings: Fluoxetine 30 mg/kg
Source text: Depression, also known as depressive disorder, is characterized by significant and long-lasting depressed state of mind as the main clinical feature. The CUMS animal model of depression is a chronic unpredictable animal stress model, which simulates part of the stressor, the external material environmental stimulus, and will cause dysfunctions in the animal organism through different stress stimuli, leading to occurrence of the psychiatric disease depression. […] During this period, carefully observing the status of each mouse. • (6) Basket shaking: Placing the mice in an empty basket and shaking the basket drastically, with the criterion that the mice in the basket are unable to stand firm and sway with the shaking of the basket, for 1 hour. • (7) Olfactory stimulation: Placing anise and other spices in the mice's baskets as a means of olfactory stimulation.
The above seven experiments were conducted randomly during a week as a way to achieve unpredictability with 4 weeks of continuous stimulation.
At the end of the modeling, an open field test experiment was conducted to screen the modeled animals and group the successful modeled animals into five groups: normal group (Control), model control group (Model), positive drug treatment group (Fluoxetine), TJ0113 10 mg/kg treatment group (10 mg/kg), […], TJ0113 30 mg/kg treatment group (30 mg/kg). There were 10 mice in each group, and the administration treatment was administered by gavage, the normal and model control groups were given vehicle treatment, the vehicle was 0.5% CMC-Na, the positive drug fluoxetine hydrochloride was solubilized in saline and administered at a dose of 30 mg/kg, and the TJ0113 vehicle was 0.5% CMC-Na, and administered at a dose of 10 mg/kg and 30 mg/kg, respectively. 4 weeks after the end of the administration, behavioral tests were performed.
• (1) Adaptive feeding: Adaptive feeding with 1% sucrose water and plain water for 2 d before the start of the test, at 1 d, interchanging the sugar water and plain water to avoid positional differences for the animals, and fasting food and water for 1 d after adaption; • (2) Formal test: after fasting food and water, 1% sucrose water and plain water were given to the animals (the initial mass of sugar water and plain water is known), and weighing the remaining mass of sugar water/plain water of each animal after 24 h, and calculating the consumption rates of sugar water A and plain water B; • (3) Data analysis: sugar water preference rate=(A/A+B)×100%.
• (1) adapting to the environment: placing the animals in the test environment for 60 min to adapt to the environment before the test; • (2) Formal test: fixing the rear 1/3 of the mouse tail with tape and suspending on the stand of the experimental apparatus, with the head 15 cm from the bottom; • (3) starting timing camera, and stopping after 6 min, and recording the immobility time of the mice within 4 min; • (4) At the end of the test, using 75% alcohol to wipe the bottom and inner wall of the chamber.
• (1) adapting to the environment: placing the animals in the test environment for 60 min to adapt to the environment before the test; • (2) Formal test: placing the animals to be tested in the middle of the open field, and using the ANY-Maze software to collect the data, the test time is 10 min, and the feces and urine must be removed at the end of each round and disinfected and wiped dry with 75% alcohol; • (3) Analysis of results: total moved distance and average speed during the activity, time spent in the center area and time spent in the corner area.

[3] = In vitro liver microsomal stability test; settings: microsomes
Experimental: Ketanserin was selected as the reference compound. The specific method was as follows:
0.1 M K3PO4 (pH 7.4) buffer and 3×NADPH stock solution (6 mM, 5 mg/mL) were configured and preheated in a 37° C. water bath; configuration of the test compounds and the control compounds (spiking solution): adding 5 μL of the compound stock solution ([…]) into 95 μL of acetonitrile; configuration of 1.5 μM spiking solution in microsomes (0.75 mg/mL): adding 1.5 μL of spiking solution and 18.75 μL of liver microsomal solution (20 mg/mL) into 479.75 μL of K3PO4 buffer; adding 30 μL of spiking solution in microsomes into the multiwell plate, and incubating at 37° C. for 5 min; adding 15 μL of NADPH storage solution into each well to start to react, and timing; adding 150 μL of acetonitrile solution containing IS at 0 min, 5 min, 15 min, 30 min, and 45 min, respectively, stopping the reaction; oscillating for 10 min, and then centrifuging at 6,000 rpm for 15 min; taking 80 μL of supernatant from each well for LC/MS detection, and calculating T1/2.

[4] = tested on: HGPS-MSC; assay: Senescence of HGPS patient derived mesenchymal stem cells; assay type: cell-based, human; settings: 10 μM
Experimental: Mesenchymal stem cells HGPS-MSC differentiated from pluripotent stem cells (iPSC) of patients with Hutchinson-Gilford Progeria Syndrome (HGPS) were taken for culture, and the experiment was divided into three groups, namely, young cells cultured for 7 generations, labeled as Con-Y; senescent cells cultured for 12 generations, labeled as Con-O; and the administration group to which 10 μM of TJ01-013 was added during the process of culture, similarly cultured up to the 12th generation, labeled as Con-O+TJ01-013; the drug administration group to which 10 μM positive drug Ionafarnib was added during the process of culture, similarly cultured up to the 12th generation, and labeled as Con-O+ Ionafarnib; after the end of the treatment, all the cells were placed under the microscope to observe the morphology of the cells, and the proportion of SA-β-gal+ cells was counted. The levels of DNA damage marker γ-H2AX and heterochromatin modification H3K9me3 after TJ01-013 treatment and Ionafarnib treatment were detected by immunofluorescence technique (the specific procedure was described previously).

[5] = tested on: LPS-induced acute lung injury mice; assay: LPS-induced acute lung injury; assay type: in vivo, C57BL/6J mice
Experimental: Male mice C57BL/6J aged 6-8 weeks and weighing 18-22 g were selected for the study. After fixing the mice, 50 μl of PBS was injected into the airways of the mice under direct laryngoscopic vision to form a control group, and 5 mg/kg of LPS (E.coil) was dissolved in 50 μl of PBS and dripped to form a model group. The experiments were divided into […], each having 6 mice, namely, NS group (control group, airway drip of 50 μl PBS), LPS group (model control group, airway drip of 50 μl LPS), LPS+10 mg/kg group (airway drip of 50 μl LPS and given 10 mg/kg TJ01-013 treatment), LPS+20 mg/kg group (airway drip of 50 μl LPS and given 20 mg/kg TJ01-013 treatment), LPS+30 mg/kg group (airway drip of 50 μl LPS and given 30 mg/kg TJ01-013 treatment), LPS+Sivelestat group (Positive control group, airway drip of 50 μl LPS and given 5 mg/kg Sivelestat treatment). All groups were administered […] by intraperitoneal injection in a volume of 200 μl 1 h and 7 h after airway drip, and the mice were euthanized 24 h later, bronchoalveolar lavage fluid (BALF) was taken, and the levels of inflammatory factors in the bronchoalveolar lavage fluid were detected and the changes in the transcriptional levels of tissue-associated inflammatory factors were observed. • (2) taking and observing of Bronchoalveolar lavage fluid (BALF)
Use chloral hydrate intraperitoneal injection to make mice die of rapid overdose anesthesia, place mice in supine position on the dissection table, fix the limbs, disinfect the skin of the neck of the mice with 75% ethanol, incise the skin along the midline of the neck, bluntly separate the subcutaneous connective tissues and muscles with hemostatic forceps, expose the trachea, separate connective tissues on both sides of the trachea and between the trachea and the esophagus, and free the trachea. Two surgical sutures about 20 cm long were threaded between the trachea and esophagus. A 24G intravenous cannula needle was inserted at a 30-degree angle from the connective tissue membrane between the thyroid cartilage and the cricoid cartilage, and the intravenous cannula needle was delivered in the direction of the tracheal eminence. A surgical suture placed between the tracheo-esophageal was ligated at the entry of the cannula into the trachea and at the distal end of the cannula, respectively, and tied as tightly as possible to secure the cannula and trachea. 0.8 ml of PBS was aspirated with a 1 ml syringe, and the syringe was connected to the inlet end of the intravenous cannula needle, and PBS was slowly injected into the trachea, stayed for 30 seconds and then was withdrawn back, and a milky white frothy liquid withdrawn back was visible, and the lavage was repeated three times, and the liquid was centrifuged at 1500 rpm/min for 10 min, and the supernatant was used for cytokine assay, and the cell precipitates were coated after resuspending with PBS for Giemsa staining and sorting and counting.
The levels of inflammatory factors (inflammatory factors including IL-6, CXCL1, CXCL2, etc.) in BALF supernatant were detected according to the instructions of the ELISA test kit.
The obtained cDNA was amplified on a 96-well PCR plate using a LightCycler 480 system, and the gene level was determined by using glyceraldehyde 3-phosphate dehydrogenase (GAPDH) as an internal standard.

[6] = tested on: LPS-induced sepsis in mice; assay: LPS-induced sepsis survival; assay type: in vivo, C57 mice; settings: 8th day; 10 mg/kg intraperitoneal once a day; LPS alone about 20%; FIG. 33
Experimental: A constructed preclinical sepsis model is a LPS-induced sepsis in mice. Injection of purified LPS into mice by intraperitoneal route or intravenous route can lead to activation of the innate immune system and simulate fulminant Gram-negative bacterial infections, the specific modeling method is as follows: 20-25 g C57 mice were selected, and 20 mg/kg LPS was injected intraperitoneally according to the body weight (the LPS was dissolved with PBS), and the experiment was divided into three groups, a model control group (LPS), a positive control treatment group (prednisone, 10 mg/kg), TJ01-013 treatment group (TJ01-013, 10 mg/kg), the mode of administration was intraperitoneal injection, the volume of administration was 5 ml/kg, the frequency of administration was once a day, and the biological deaths and changes in body weights of the mice were observed and recorded every day, and the mice were regarded as physiologically dead if their body weights decreased by 20% or more compared with that before the administration of LPS. Survival curves were plotted based on deaths observed up to 8 days after administration.

[7] = TJ01-013 10, 20, 30 mg/kg, Sivelestat 5 mg/kg, FIG. 26
[8] = concentration-dependent for TJ01-013, FIG. 27

## CC(C)(C)NC(=O)[C@H]1CC[C@H]2[C@@H]3CC[C@H]4NC(=O)C=C[C@]4(C)[C@H]3CC[C@]12C [Finasteride]
[1]; oral gavage daily to day 30, FIG. 34
  prostate weight: reduced
[1]; oral gavage daily, FIG. 35
  organ coefficient of prostate: reduced the organ coefficient of prostate, but there was no significant difference
[1]; oral gavage daily, FIG. 36
  weight of urethra and bladder: tendency of decreasing its weight

## CNCCC(Oc1ccc(C(F)(F)F)cc1)c1ccccc1 (stereo not shown) [Fluoxetine, reference compound]
[2]; TJ0113 10 mg/kg and 30 mg/kg, FIG. 61
  average movement speed, open field: significantly increased
[2]; TJ0113 30 mg/kg, gavage, FIG. 57
  sugar water preference: significantly increased
[2]; TJ0113 30 mg/kg, FIG. 58
  time in despair (immobility), tail-hanging experiment: significantly decreased
[2]; TJ0113 30 mg/kg, FIG. 59
  distance moved, open field: significantly increased
[2]; TJ0113 30 mg/kg, FIG. 60
  time in the edge area of the open field: significantly decreased

## CN(c1cc([S+]([O-])CC(=O)O)c(O)c2ccccc12)S(=O)(=O)c1ccc(Br)cc1 (stereo not shown) [I-2]
[3]
  liver microsomal stability (elimination half-life T1/2): superior liver microsomal stability

## NC(=O)N1CCC(CC(=O)N2CCC([C@H]3c4ncc(Br)cc4CCc4cc(Cl)cc(Br)c43)CC2)CC1 [Ionafarnib, reference compound]
[4]; 12th generation, vs Con-O, FIG. 54
  percentage of SA-β-gal+ cells: significantly decreased
[4]; FIG. 55
  level of DNA damage marker γ-H2AX: significantly reduced
[4]; FIG. 56
  expression level of heterochromatin-modified H3K9me3: restored its expression level to some extent

## CC(C)(C)C(=O)Oc1ccc(S(=O)(=O)Nc2ccccc2C(=O)NCC(=O)O)cc1 [Sivelestat, reference compound]
[5]; [7]
  CXCL1 level in alveolar lavage fluid (ELISA): significantly decreased
  CXCL2 level in alveolar lavage fluid (ELISA): no significant effect
  IL-6 level in alveolar lavage fluid (ELISA): no significant effect
[5]; [8]
  CXCL1 transcript level in lung tissue: significantly decreased
  CXCL2 transcript level in lung tissue: no significant effect
  IL-6 transcript level in lung tissue: no significant effect

## C[C@]12C=CC(=O)C=C1CC[C@@H]1[C@@H]2C(=O)C[C@@]2(C)[C@H]1CC[C@]2(O)C(=O)CO [prednisone, reference compound]
[6]
  survival rate: 100%
